Laboratory results as given in patent publication US4281121A, “1,3,4-Thiadiazole-2-carboxylic acid derivatives, process for making the same and fungicidal and nematocidal compositions containing same” (Schering Aktiengesellschaft, priority 1978, dated 1981).
Read-outs that look alike come from different tables or passages of the source.

How the values were obtained:
Tilletia caries = experiment: Treatment of oat seeds infested with Tilletia caries (spore germination); type: in vivo
Botrytis cinerea [1] = experiment: Prophylactic leaf treatment of tomato plants against Botrytis cinerea; type: in vivo; settings: concentration of 0.025 of the active agent (unit not given)
Helminthosporium gram = settings: about 5 weeks
Description: Treatment of barley seeds infested with Helminthosporium gram
After emergence, the plants were subjected to illumination for 12 hours per day. After about 5 weeks the infested plants were counted and the total number of plants for each test were also counted. The active agents tested were used as pulverulent compositions.

Pythium ultimum = experiment: Threshold concentration test for use of the compounds against Pythium ultimum (infested soil, garden peas); type: in vivo; design: key to root evaluation (1-4): 4: white roots without fungous necrosis; 3: white roots, minor fungous necrosis; 2: brown roots, already more pronounced fungous necrosis; 1: heavy fungous necrosis, roots rotted; settings: for root evaluation (1-4): 3 weeks; for number of sound peas: 20 grains per dish, 3 weeks at 20-24° C.
How it was run: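 Pulverulent agents at 20% concentration mixed evenly into soil heavily infested with Pythium ultimum, then garden peas ('Wunder von Kelvedon', 20 per dish) sown at once. After three weeks at 20–24 °C in a hothouse, sound peas counted and roots scored on a 1–4 scale.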

[2] = tested on: Helminthosporium gramineum; experiment: Seed treatment in open field tests for infestation by Helminthosporium gramineum (barley); type: in vivo; settings: summer barley; 50 g active agent/100 kg barley; about 3 months
Description: Seed treatment in open field tests for infestation by Helminthosporium gramineum
The active agents were used in the form of pulverulent compositions. After about 8 months in case of winter barley and after about 3 months in case of summer barley the infested plants were counted and the activity was calculated by the formula [formula]

Plasmopara viticola = experiment: Prophylactic leaf treatment of grapevines in the hothouse against Plasmopara viticola; type: in vivo
How it was run: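 Grapevines (5–8 leaves) sprayed to runoff with compound as 20% spray powder, then after drying inoculated on leaf undersides with sporangial suspension (~20,000/ml). Incubated at 22–24 °C, saturated humidity, 3–4 days normal humidity (30–70%), then one day saturated; activity from mean % infested leaf area per treatment.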

Fusarium avenaceum [3] = experiment: Threshold concentration test in case of Fusarium avenaceum (infested soil, garden peas); type: in vivo; settings: for number of sound peas: 20 grains per dish, 18 days at 20-24° C.; for root evaluation (1-4): 18 days
How it was run: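 Soil heavily infested with Fusarium avenaceum was mixed uniformly with a 20% powder formulation of active agent, then sown immediately with 20 garden pea seeds ('Wunder von Kelvedon') per dish. After 18 days in a greenhouse at 20° to 24° C., sound plants were counted and roots scored on a 1–4 scale.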

Piricularia oryzae = type: in vivo; settings: concentration of active agent 0.1 (percentages); 5 days
Venturia inaequalis = experiment: Prophylactic leaf treatment of apples in open field test against Venturia inaequalis; type: in vivo; settings: 3 weeks
Penicillium digitatum = experiment: Inhibition of fungus in a nutrient solution: Penicillium digitatum; type: cell-based; settings: 6 days at 21-23° C.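 Further: 0 means no fungus growth and higher grades mean more surface covered.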
Fusarium avenaceum [4] = experiment: Inhibition of fungus in a nutrient solution: Fusarium avenaceum; type: cell-based; settings: 6 days at 21-23° C.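 Further: 0 means no fungus growth and higher grades mean more surface covered.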
Description: Inhibition of fungus in a nutrient solution
20 ml of a nutrient solution of grape juice and water (1:1) were filled into a glass vial of a 100 ml capacity and were mixed with the pulverulent active agents which appear from the subsequent table. Thereafter, the solution was inoculated with conidia (spores) of the test fungi.
After an incubation time of 6 days at 21° to 23° C. the fungus development on the surface of the nutrient solution was evaluated. The test fungi used were the following: Penicillium digitatum, Botrytis cinerea, Alternaria solani, Fusarium avenaceum.
The evaluation was carried out at a scale from 0 to 5 as follows: […]

Botrytis cinerea [5] = experiment: Inhibition of fungus in a nutrient solution: Botrytis cinerea; type: cell-based; settings: 6 days at 21-23° C.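 Further: 0 means no fungus growth and higher grades mean more surface covered.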
Alternaria solani = experiment: Inhibition of fungus in a nutrient solution: Alternaria solani; type: cell-based; settings: 6 days at 21-23° C.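 Further: 0 means no fungus growth and higher grades mean more surface covered.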
[6] = concentration of active agent 0.001 (unit not given)
[7] = concentration of active agent 0.005 (unit not given)
[8] = concentration of active agent 0.025 (unit not given)

## CCS(=O)(=O)c1nnc(C(=O)N2CCCC2)s1 [5-ethylsulfonyl-1,3,4-thiadiazole-2-carboxylic acid-N,N-tetramethylene-amide]
Tilletia caries; 10 g active agent per 100 kg
  % activity: 100%
Tilletia caries; 20 g active agent per 100 kg
  % activity: 100%
Tilletia caries; 50 g active agent per 100 kg
  % activity: 100%
Botrytis cinerea [1]
  % activity: 75%
Helminthosporium gram; 10 g active agent per 100 kg
  % activity: 98%
Helminthosporium gram; 20 g active agent per 100 kg
  % activity: 100%
Helminthosporium gram; 50 g active agent per 100 kg
  % activity: 99%
Pythium ultimum; 20 mg/l soil
  root evaluation (1-4): 2
  number of sound peas: 14
Pythium ultimum; 40 mg/l soil
  root evaluation (1-4): 4
  number of sound peas: 20
Pythium ultimum; 80 mg/l soil
  root evaluation (1-4): 4
  number of sound peas: 20
[2]
  % activity: 100%
Plasmopara viticola; [6]
  % activity: 91%
Plasmopara viticola; [7]
  % activity: 99%
Plasmopara viticola; [8]
  % activity: 100%

## CCCCCCS(=O)(=O)c1nnc(C(N)=O)s1 [5-hexylsulfonyl-1,3,4-thiadiazole-2-carboxamide]
Fusarium avenaceum [3]; 25 mg/l soil
  number of sound peas: 7
  root evaluation (1-4): 1
Fusarium avenaceum [3]; 50 mg/l soil
  number of sound peas: 12
  root evaluation (1-4): 2
Fusarium avenaceum [3]; 100 mg/l soil
  number of sound peas: 15
  root evaluation (1-4): 3
Tilletia caries; 50 g active agent per 100 kg
  % activity: 98%
Botrytis cinerea [1]
  % activity: 87%
Plasmopara viticola; [8]
  % activity: 90%

## CCNC(=O)c1nnc([S+](C)[O-])s1 (centres unmarked) [5-methylsulfinyl-1,3,4-thiadiazole-2-carboxylic acid-ethylamide]
Piricularia oryzae
  % activity: 90%
Tilletia caries; 20 g active agent per 100 kg
  % activity: 100%
Tilletia caries; 50 g active agent per 100 kg
  % activity: 100%
Botrytis cinerea [1]
  % activity: 75%
Helminthosporium gram; 10 g active agent per 100 kg
  % activity: 98%
Helminthosporium gram; 20 g active agent per 100 kg
  % activity: 99%
Helminthosporium gram; 50 g active agent per 100 kg
  % activity: 100%
Pythium ultimum; 20 mg/l soil
  root evaluation (1-4): 2
  number of sound peas: 18
Pythium ultimum; 40 mg/l soil
  root evaluation (1-4): 4
  number of sound peas: 18
Pythium ultimum; 80 mg/l soil
  root evaluation (1-4): 4
  number of sound peas: 19
Plasmopara viticola; [8]
  % activity: 96%

## CCCCNC(=O)c1nnc(S(C)(=O)=O)s1 [5-methylsulfonyl-1,3,4-thiadiazole-2-carboxylic acid-butylamide]
Piricularia oryzae
  % activity: 90%
Tilletia caries; 10 g active agent per 100 kg
  % activity: 99.2%
Tilletia caries; 20 g active agent per 100 kg
  % activity: 100%
Tilletia caries; 50 g active agent per 100 kg
  % activity: 100%
Venturia inaequalis; concentration of active agent 0.005 (in gram)
  % activity: 94%
Venturia inaequalis; concentration of active agent 0.025 (in gram)
  % activity: 99%
Botrytis cinerea [1]
  % activity: 76%
Helminthosporium gram; 50 g active agent per 100 kg
  % activity: 90%
Pythium ultimum; 20 mg/l soil
  root evaluation (1-4): 2
  number of sound peas: 14
Pythium ultimum; 40 mg/l soil
  root evaluation (1-4): 4
  number of sound peas: 15
Pythium ultimum; 80 mg/l soil
  root evaluation (1-4): 4
  number of sound peas: 16
[2]
  % activity: 99.3%
Plasmopara viticola; [6]
  % activity: 83%
Plasmopara viticola; [7]
  % activity: 99.1%

## COC(=O)c1nnc(S(C)(=O)=O)s1 [5-methylsulfonyl-1,3,4-thiadiazole-2-carboxylic acid-methylester]
Penicillium digitatum; 0.002%
  fungus development on the surface of the nutrient solution (0-5): 1
Penicillium digitatum; 0.004%
  fungus development on the surface of the nutrient solution (0-5): 0
Fusarium avenaceum [4]; 0.002%
  fungus development on the surface of the nutrient solution (0-5): 0
Fusarium avenaceum [4]; 0.004%
  fungus development on the surface of the nutrient solution (0-5): 0
Botrytis cinerea [5]; 0.002%
  fungus development on the surface of the nutrient solution (0-5): 1
Botrytis cinerea [5]; 0.004%
  fungus development on the surface of the nutrient solution (0-5): 0
Alternaria solani; 0.002%
  fungus development on the surface of the nutrient solution (0-5): 1
Alternaria solani; 0.004%
  fungus development on the surface of the nutrient solution (0-5): 0
